One data set has as its system Anas platyrhynchos. Particulars: acute; oral; unspecified; mortality.
For a further data set, the system named is Perca sp. Conditions: acute; duration: 96 hours; mortality.
For a further data set, the system named is Tagia sp. Conditions: acute; duration: 14 days; mortality.
A further data set deals with Apis mellifera. Particulars: acute; duration: 48 hours; dermal; mortality.
In the next data set the test system is Bibionidae. Particulars: chronic/long-term; duration: 28 days.
For a further data set, the system named is Oncorhynchus mykiss. Conditions: chronic/long-term; duration: 63 days.
Another data set deals with Canidae. Conditions: chronic; duration: 1 years; oral; Dog Other; food consumption.
The subject of another data set is Folsomia candida. Particulars: acute; duration: 14 days; mortality.
Another data set relates to Daphnia magna. Conditions: chronic/long-term; duration: 21 days; behavior.
A further data set deals with Adalia sp. Briefly: LR50; higher = less toxic. Particulars: not reported; mortality.
The next data set relates to Typhlodromus pyri. The data set can be described thus: LR50; higher = less toxic. Conditions: not reported; mortality.
The mark [1] stands for this setting: reproduction developmental, reproduction.

Values after ≈ are worked out from the molar mass of the structure shown.

With `CC(C)(C)c1ccc(CCOc2ncnc3ccccc23)cc1` [Fenazaquin], the LD50 is more than 2000 mg/kg in the data set on Anas platyrhynchos; 134 mg/kg with Rattus norvegicus (acute, oral, M, mortality); 1750 mg/kg in the data set on Colinus virginianus (acute, oral, mortality); 1.21 µg/piece in the data set with Apis mellifera. Besides, the LC50 was 3.2 ng/mL (≈ 0.0104 µM) in the data set with Perca sp.; more than 1170 mg/kg-day with Colinus virginianus (acute, oral, diet, mortality); 26.5 mg/kg in the data set with Tagia sp.; more than 1000 mg/kg in the data set with Folsomia candida. Further, the NOAEL came out at 0.46 mg/kg-day in the data set with Rattus norvegicus (chronic, duration: 2 years, oral, histopathology: nonneoplastic); 10 mg/kg-day in the data set with Rattus norvegicus (reproduction developmental, food consumption); 5 mg/kg-day in the data set on Canidae. For the same compound, the NOEL in the data set with Rattus norvegicus (setting [1]) amounted to 25 mg/kg-day. The NOEC in the data set on Colinus virginianus (setting [1]) was determined as 80.3 mg/kg-day; in the data set on Bibionidae, 0.0188 mg/kg; with Oncorhynchus mykiss, 0.00096 mg/L; in the data set with Daphnia magna, 0.0014 mg/L. Also, the figures for the LR50 in the data set on Adalia sp. and in the data set on Typhlodromus pyri were less than 21.9 g/ha and less than 2 g/ha, respectively.

In general, NOAEL refers to the highest tested level that showed no adverse finding.

(Values after EPA's ToxValDB 9.5 (doi:10.2903/j.efsa.2010.1892).)
